Usually IC50 stands for the concentration that inhibits the measured activity by half. A lower IC50 goes with greater potency.

The target in this assay is T1, NAD(+) hydrolase SARM1 (Homo sapiens, UniProt Q6SZW1).
T1 sequence (Q6SZW1 whole entry): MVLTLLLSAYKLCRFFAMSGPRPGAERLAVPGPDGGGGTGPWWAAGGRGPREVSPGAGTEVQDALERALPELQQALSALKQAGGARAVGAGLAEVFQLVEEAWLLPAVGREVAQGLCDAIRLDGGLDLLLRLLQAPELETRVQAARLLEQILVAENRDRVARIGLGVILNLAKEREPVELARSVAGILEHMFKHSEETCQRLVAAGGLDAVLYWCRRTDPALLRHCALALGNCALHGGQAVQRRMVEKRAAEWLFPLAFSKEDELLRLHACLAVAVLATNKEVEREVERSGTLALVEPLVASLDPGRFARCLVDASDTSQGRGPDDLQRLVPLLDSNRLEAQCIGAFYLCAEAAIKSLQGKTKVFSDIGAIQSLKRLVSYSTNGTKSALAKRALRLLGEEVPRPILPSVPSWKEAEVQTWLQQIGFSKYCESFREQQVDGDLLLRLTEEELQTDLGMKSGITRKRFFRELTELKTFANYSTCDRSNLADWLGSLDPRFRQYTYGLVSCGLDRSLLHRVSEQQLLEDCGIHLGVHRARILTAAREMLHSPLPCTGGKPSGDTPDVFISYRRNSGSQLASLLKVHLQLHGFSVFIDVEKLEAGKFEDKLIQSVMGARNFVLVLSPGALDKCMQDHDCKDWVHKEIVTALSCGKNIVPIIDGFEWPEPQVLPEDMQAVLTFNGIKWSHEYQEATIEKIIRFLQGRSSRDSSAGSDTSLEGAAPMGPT
Put plainly: Biochemical Assay of the Compounds. The procedure: Preparation of full-length SARM1 (FL-SARM1) lysate: HEK293T cells (ATCC: CRL-3216) were grown on 150 mm TC-treated dishes to 80-90% confluency in complete DMEM (DMEM (Thermo Fisher: 11965175) supplemented with 10% HI-FBS (VWR: 10802-772), 1x Pen/Strep (Thermo Fisher: 15140122), 1x NEAA (Thermo Fisher: 1140050), 1x glutamax (Thermo Fisher: 35050061), and 1 mM sodium pyruvate (Thermo Fisher: 11360070)) at 37 °C and 5% CO2. One hour prior to transfection, the media was replaced with fresh, 37 °C complete DMEM (20 mL per one 150 mm dish) supplemented with additional 10mM glucose (Alfa Aesar AAJ60067EQE). Per one 150 mm dish, 30 µg FL-SARM1 (SEQ. ID.1; cloned in-house) plasmid was dissolved in 1 mL DMEM at ambient temperature and were mixed by inverting the tube 8-10 times.90 µL of GenJet™ in vitro DNA transfection reagent (Ver2) was dissolved in 1 mL DMEM at ambient temperature and were mixed by inverting the tube 8-10 times. The plasmid and transfection agent solutions were combined, mixed by 8-10 inversions and incubated for 10 minutes at ambient temperature.2 mL of this transfection mixture was added to each dish containing HEK293T cells as prepared above followed by a gentle mixing of 4-5 horizontal rotations. The dishes were incubated at 37 °C and 5% CO2 for 24 h. The dishes were removed from the incubator, the medium was aspirated and the cells were scraped off using cell scrapers in ice-cold 1x PBS (5 mL/dish, Thermo Fisher Scientific 10010023). The collected cells were centrifuged at 300 g for 5 minutes at 4 °C. The supernatant was aspirated and the pellet was frozen at -80 °C until needed. The cell pellet from 30 dishes was dissolved in 30 mL 1x PBS supplemented with 4 tablets of Complete, Mini EDTA-free protease inhibitor cocktail at 4 °C. This mixture was sonicated on ice for 10 minutes at 50% amplitude with a 1 second on/1 second off interval using a Model 120 sonicator (Thermo Fisher Scientific, FB120110). The lysate was centrifuged at 16000 g for 10 minutes at 4 °C.
In the case of `CC1CC2CC(C1)N2C(=O)Nc1ccc(Cl)c([C@H]2CC[C@@H]2C(F)F)c1` (some centres not stated) [WO2025054369, Example 50], the IC50 was less than 1 µM. In the case of `CC1CC2CC(C1)N2C(=O)Nc1ccc(Cl)c([C@@H]2CC[C@H]2C(F)F)c1` (some centres not stated) [WO2025054369, Example 51] it was less than 1 µM; in that of `N#C[C@H]1CC[C@H]1c1cc(NC(=O)N2C3CC2CC(C(F)(F)F)C3)ccc1C(F)(F)F` (some centres not stated) [WO2025054369, Example 52], 5.5 µM; in that of `N#C[C@@H]1CC[C@@H]1c1cc(NC(=O)N2C3CC2CC(C(F)(F)F)C3)ccc1C(F)(F)F` (some centres not stated) [WO2025054369, Example 53], less than 1 µM. In the case of `N#C[C@H]1CC[C@@H]1c1cc(NC(=O)N2C3CC2CC(C(F)(F)F)C3)ccc1C(F)(F)F` (some centres not stated) [WO2025054369, Example 54] it was less than 1 µM. `N#C[C@@H]1CC[C@H]1c1cc(NC(=O)N2C3CC2CC(C(F)(F)F)C3)ccc1C(F)(F)F` (some centres not stated) [WO2025054369, Example 55] gave an IC50 of less than 1 µM. In the case of `N#C[C@H]1CC[C@H]1c1cc(NC(=O)N2C3CC2CC(C(F)(F)F)C3)ccc1Cl` (some centres not stated) [WO2025054369, Example 56] it was 5.5 µM; in that of `Cc1nnc([C@]23CCC[C@H](C2)N3C(=O)Nc2ccc(Cl)c(C3CCC3)c2)o1` [WO2025054369, Example 58], more than 10 µM.

In turn, `Cc1nnc([C@@]23CCC[C@@H](C2)N3C(=O)Nc2ccc(Cl)c(C3CCC3)c2)o1` [WO2025054369, Example 59] yielded an IC50 of 5.5 µM. Molecule `CC1CC2CC(C1)N2C(=O)Nc1ccc(Cl)c([C@@H]2CCC[C@@H]2C#N)c1` (some centres not stated) [WO2025054369, Example 60] returned an IC50 of less than 1 µM. In the case of `CC1CC2CC(C1)N2C(=O)Nc1ccc(Cl)c([C@H]2CCC[C@H]2C#N)c1` (some centres not stated) [WO2025054369, Example 61] it was less than 1 µM; in that of `CC1CC2CC(C1)N2C(=O)Nc1ccc(Cl)c([C@H]2CCC[C@@H]2C#N)c1` (some centres not stated) [WO2025054369, Example 62], less than 1 µM. With `CC1CC2CC(C1)N2C(=O)Nc1ccc(Cl)c([C@@H]2CCC[C@H]2C#N)c1` (some centres not stated) [WO2025054369, Example 63] the figure was less than 1 µM; with `C[C@]1(O)CC[C@H](c2cc(NC(=O)N3C4CC3CC(C(F)(F)F)C4)ccc2Cl)C1` (some centres not stated) [WO2025054369, Example 64], less than 1 µM; with `C[C@@]1(O)CC[C@@H](c2cc(NC(=O)N3C4CC3CC(C(F)(F)F)C4)ccc2Cl)C1` (some centres not stated) [WO2025054369, Example 65], 5.5 µM. With `C[C@]1(O)CC[C@@H](c2cc(NC(=O)N3C4CC3CC(C(F)(F)F)C4)ccc2Cl)C1` (some centres not stated) [WO2025054369, Example 66] the figure was less than 1 µM. In turn, `C[C@@]1(O)CC[C@H](c2cc(NC(=O)N3C4CC3CC(C(F)(F)F)C4)ccc2Cl)C1` (some centres not stated) [WO2025054369, Example 67] gave a half-inhibitory concentration (IC50) of less than 1 µM. `Cc1nnc([C@@]23C[C@@H](C[C@@H](C(F)(F)F)C2)N3C(=O)Nc2ccc(Cl)c(C3CCC3)c2)o1` [WO2025054369, Example 68]: the IC50 is less than 1 µM. As for `Cc1nnc([C@]23C[C@H](C[C@H](C(F)(F)F)C2)N3C(=O)Nc2ccc(Cl)c(C3CCC3)c2)o1` [WO2025054369, Example 69], the half-maximal inhibitory concentration (IC50) is more than 10 µM. `Cc1nnc([C@@]23C[C@@H](C)C[C@@H](C2)N3C(=O)Nc2ccc(Cl)c(N3CC(O)C3)c2)o1` [WO2025054369, Example 70]: the IC50 is less than 1 µM.

For `CC1CC2CC(C1)N2C(=O)Nc1ccc(Cl)c(N2CC[C@@H]2C#N)c1` (some centres not stated) [WO2025054369, Example 71], the IC50 was less than 1 µM. For `CC1CC2CC(C1)N2C(=O)Nc1ccc(Cl)c(N2CC[C@H]2C#N)c1` (some centres not stated) [WO2025054369, Example 72], the IC50 is less than 1 µM. For `CC1(O)CC(c2cc(NC(=O)N3C4CC3CC(C(F)(F)F)C4)ccc2CN)C1` (configuration not stated) [WO2025054369, Example 73], the IC50 worked out at 5.5 µM. Molecule `CC1CC2CC(C1)N2C(=O)Nc1ccc(Cl)c(C2CC(C)(OCCO)C2)c1` (configuration not stated) [WO2025054369, Example 74] yielded an IC50 of less than 1 µM.

`CC1CC2CC(C1)N2C(=O)Nc1ccc(C(F)(F)F)c(C2CCC2)c1` (configuration not stated) [WO2025054369, Example 75] returned an IC50 of less than 1 µM. For the molecule `CC1CC2CC(C1)N2C(=O)Nc1ccc(Cl)c(C2CCC2(F)F)c1` (configuration not stated) [WO2025054369, Example 76], the IC50 was less than 1 µM.

`CC1CC2CC(C1)N2C(=O)Nc1ccc(Cl)c(C2CC(=O)C2)c1` (configuration not stated) [WO2025054369, Example 77] had a half-inhibitory concentration (IC50) of less than 1 µM.

In the case of `CC1CC2CC(C1)N2C(=O)Nc1ccc(Cl)c(C2CC(O)C2)c1` (configuration not stated) [WO2025054369, Example 78], the 50% inhibitory concentration (IC50) was less than 1 µM. In the case of `COC(C)(C)c1cc(NC(=O)N2C3CC(C)CC2C3)ccc1Cl` (configuration not stated) [WO2025054369, Example 79] it was 5.5 µM. `Cc1noc(C23CC(C)CC(C2)N3C(=O)Nc2ccc(Cl)c(C3CCC3)c2)n1` (configuration not stated) [WO2025054369, Example 80] returned an IC50 of less than 1 µM. In the case of `CC1CC2CC(C1)N2C(=O)Nc1ccc(Cl)c(C(C)(C)O)c1` (configuration not stated) [WO2025054369, Example 81] it was 5.5 µM; in that of `Cc1noc(C23CC(C)CC(C2)N3C(=O)Nc2ccc(Cl)c(C3CCCC3)c2)n1` (configuration not stated) [WO2025054369, Example 82], less than 1 µM.

With `CC1CC2CC(C1)N2C(=O)Nc1ccc(Cl)c(C2CCC2=O)c1` (configuration not stated) [WO2025054369, Example 83], the IC50 is less than 1 µM. In the case of `CC1CC2CC(C1)N2C(=O)Nc1ccc(Cl)c(N2CCC2CF)c1` (configuration not stated) [WO2025054369, Example 84] it was less than 1 µM; in that of `CC1CC2CC(C1)N2C(=O)Nc1ccc(Cl)c(N2CC(OCCO)C2)c1` (configuration not stated) [WO2025054369, Example 85], 5.5 µM; in that of `CC1CC2CC(C1)N2C(=O)Nc1ccc(Cl)c(N2CC(OCCN)C2)c1` (configuration not stated) [WO2025054369, Example 86], more than 10 µM. In the case of `CC1CC2CC(C1)N2C(=O)Nc1ccc(Cl)c(N2CC[C@@H](O)C2)c1` (some centres not stated) [WO2025054369, Example 87] it was less than 1 µM; in that of `CC1CC2CC(C1)N2C(=O)Nc1ccc(Cl)c(N2CC[C@H](O)C2)c1` (some centres not stated) [WO2025054369, Example 88], less than 1 µM. In the case of `O=C(Nc1ccc(Cl)c(N2CC(O)C2)c1)N1C2CC1CC(C(F)(F)F)C2` (configuration not stated) [WO2025054369, Example 89] it was less than 1 µM; in that of `CC1CC2CC(C1)N2C(=O)Nc1ccc(C(F)(F)F)c(N2CC(O)C2)c1` (configuration not stated) [WO2025054369, Example 90], less than 1 µM. For `C[C@@H]1C[C@@H]2C[C@H](C1)N2C(=O)Nc1ccc(Cl)c(N2CC(C#N)C2)c1` [WO2025054369, Example 91], the IC50 was less than 1 µM. Take `C[C@@H]1C[C@@H]2C[C@H](C1)N2C(=O)Nc1ccc(Cl)c(N2CC(O)C2)c1` [WO2025054369, Example 92]: the IC50 was less than 1 µM. Consider `C[C@@H]1C[C@@H]2C[C@H](C1)N2C(=O)Nc1ccc(Cl)c(N2CCCC2=O)c1` [WO2025054369, Example 93], for which the IC50 was determined as 5.5 µM. `C[C@@H]1C[C@@H]2C[C@H](C1)N2C(=O)Nc1ccc(Cl)c(N2CCOC2=O)c1` [WO2025054369, Example 94] registered an IC50 of 5.5 µM.

`C[C@@H]1C[C@@H]2C[C@H](C1)N2C(=O)Nc1ccc(Cl)c(N2CCC2)c1` [WO2025054369, Example 95] gave an IC50 of less than 1 µM. In the case of `C[C@@H]1C[C@@H]2C[C@H](C1)N2C(=O)Nc1ccc(Cl)c(N2CCNC2=O)c1` [WO2025054369, Example 96], the IC50 was less than 1 µM. Molecule `Cc1ccc(NC(=O)N2C3CCCC2C3)cc1N1CCN(C)C1=O` [WO2025054369, Example 97] displayed an IC50 of 5.5 µM.
